# Key:
# [1] = molecular target: T1, human muscarinic M3 receptor (Homo sapiens (Human), UniProt P20309); assay: Binding assay on human muscarinic M3 receptor ([3H]-methyl scopolamine displacement); details: membranes overexpressing human M3 receptor, Ki from IC50 by Cheng-Prusoff, read-out: Binding Affinity to M3 Receptor, Ki
# Outline: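 Displacement of [3H]-methyl scopolamine from membranes overexpressing human M3, in Tris-HCl, 25 °C, 120 min; filter-bound radioactivity counted. Nonspecific binding with 5 μM atropine; Ki from IC50 via Cheng-Prusoff.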
# [2] = system: rhythmic bladder contractions; assay: Rhythmic bladder contractions in rats (in vivo); set-up: species or system rat; details: 0.3 mpk, intravenous, female Sprague-Dawley rats; amplitude reduction of bladder contractions
# Source text: [Experimental Example 3] Experiment on Rhythmic Bladder Contractions in Rats (In Vivo)
# Female Sprague-Dawley rat was halothane-anesthetized, and a polyethylene catheter was inserted through urethra lay down straight and fixed. Urine in bladder was excreted through the catheter by gently massaging abdomen of the rat, and then removed. A three-way stopcock was connected to the catheter and a pressure transducer was connected to one side of the three-way stopcock to measure pressure, and a syringe was installed at the other side to inject 37° C. of saline solution. The saline solution was slowly injected until regular bladder contractions occurred repeatedly. When regular bladder contractions occurred stably, test compounds were administered intravenously through the tail vein. Inhibitory effect of the test compounds was evaluated by measuring degree of amplitude reduction of bladder contractions.
# [3] = molecular target: T1, human muscarinic M3 receptor; assay: Antagonism assay on human muscarinic M3 receptor (carbachol-induced intracellular calcium, FLIPR Calcium 5, transfected Cos-7 cells); format: cell-based; details: functional inhibitory constant; carbachol-induced intracellular calcium in Cos-7 cells transfected with human M3 receptor
# Method: [Experimental Example 2] Antagonism Assay on Human Muscarinic M3 Receptor
# The antagonism assay for various compounds of the present invention was conducted on antagonism to human M3 receptor in Cos-7 cells that was transfected with plasmid coding human muscarinic M3 receptor. Test compounds in various concentrations were pre-treated to the cells for 3 minutes, and then the changes of intracellular calcium were measured after treating the same with carbachol (i.e. muscarinic receptor agonist). The FLIPR® Calcium 5 assay (Molecular Devices) and Flex3 device (Molecular Devices) were used to measure concentration of calcium. Amounts of calcium before and after carbachol treatment were set as 0% and 100% respectively. Inhibition rates (%) by the compounds for increase in intracellular calcium by carbachol were calculated. The antagonistic potency of the test compounds on human muscarinic M3 receptor was calculated as the functional inhibitory constant (Ki), which can be calculated from concentration (IC50) of compound inhibiting 50% of activity of carbachol according to Cheng and Prusoff equation.
# T1 sequence (P20309 whole entry): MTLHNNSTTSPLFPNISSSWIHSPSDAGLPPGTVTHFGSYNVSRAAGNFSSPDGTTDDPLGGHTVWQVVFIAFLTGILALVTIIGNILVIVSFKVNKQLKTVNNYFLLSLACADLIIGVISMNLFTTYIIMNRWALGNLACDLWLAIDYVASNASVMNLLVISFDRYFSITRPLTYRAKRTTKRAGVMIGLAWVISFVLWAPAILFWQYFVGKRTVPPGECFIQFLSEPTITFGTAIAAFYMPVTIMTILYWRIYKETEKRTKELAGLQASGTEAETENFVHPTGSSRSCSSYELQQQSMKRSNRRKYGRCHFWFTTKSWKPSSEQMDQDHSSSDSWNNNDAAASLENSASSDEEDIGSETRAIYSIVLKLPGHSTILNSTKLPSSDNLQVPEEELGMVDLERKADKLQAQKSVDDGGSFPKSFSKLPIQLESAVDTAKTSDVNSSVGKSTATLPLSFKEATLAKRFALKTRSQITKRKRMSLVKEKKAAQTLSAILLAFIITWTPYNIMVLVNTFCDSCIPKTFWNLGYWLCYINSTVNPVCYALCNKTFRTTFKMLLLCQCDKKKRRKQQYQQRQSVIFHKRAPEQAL
SMILES,Ki [1] [nM],Ki [3] [nM],Inhibition of Rhythmic bladder contraction in rats [2] [%]
"CN1CC[C@@H](COC(=O)Nc2ccccc2-c2ccc(F)c(F)c2)C1 [Example 115, (R)-(1-methylpyrrolidin-3-yl)methyl(3′,4′-difluoro-[1,1′-biphenyl]-2-yl)carbamate]",7.49,0.32,–
"CN1CC[C@H](COC(=O)Nc2ccccc2-c2cccc(F)c2)C1 [Example 116, (S)-(1-methylpyrrolidin-3-yl)-methyl (3′-fluoro-[1,1′-biphenyl]-2-yl)carbamate]",12.6,1.21,–
"CN1CC[C@H](COC(=O)Nc2ccccc2-c2cccc(Cl)c2)C1 [Example 118, (S)-(1-methylpyrrolidin-3-yl)methyl(3′-chloro-[1,1′-biphenyl]-2-yl)carbamate]",2.42,0.77,–
"CN1CC[C@H](COC(=O)Nc2ccccc2-c2cc(F)cc(Cl)c2)C1 [Example 120, (S)-(1-methylpyrrolidin-3-yl)methyl(3′-chloro-5′-fluoro-[1,1′-biphenyl]-2-yl)carbamate]",9.7,1.03,–
"CN1CC[C@H](COC(=O)Nc2ccc(F)cc2-c2cc(Cl)cc(Cl)c2)C1 [Example 126, (S)-(1-methylpyrrolidin-3-yl)methyl(3′,5′-dichloro-5-fluoro-[1,1′-biphenyl]-2-yl)carbamate]",24.8,17.5,–
"CN1CC[C@@H](COC(=O)Nc2ccccc2-c2ccc(Cl)c(Cl)c2)C1 [Example 130, (R)-(1-methylpyrrolidin-3-yl)-methyl (3′,4′-dichloro-[1,1′-biphenyl]-2-yl)carbamate]",2.1,1.14,–
"CN1CC[C@@H](COC(=O)Nc2ccccc2-c2cc(F)cc(Cl)c2)C1 [Example 132, (R)-(1-methylpyrrolidin-3-yl)methyl(3′-chloro-5′-fluoro-[1,1′-biphenyl]-2-yl)carbamate]",4.64,0.75,–
"CN1CC[C@@H](COC(=O)Nc2ccc(F)cc2-c2cc(Cl)cc(Cl)c2)C1 [Example 135, (R)-(1-methylpyrrolidin-3-yl)methyl(3′,5′-dichloro-5-fluoro-[1,1′-biphenyl]-2-yl)carbamate]",24.1,16.5,–
"CN1CC[C@@H](COC(=O)Nc2ccc(F)cc2-c2ccccc2F)C1 [Example 144, (R)-(1-methylpyrrolidin-3-yl)methyl(2′,5-difluoro-[1,1′-biphenyl]-2-yl)carbamate]",17.2,1.42,–
"CC(C)N1CC[C@@H](COC(=O)Nc2ccccc2-c2ccc(F)c(Cl)c2)C1 [Example 151, (R)-(1-isopropylpyrrolidin-3-yl)-methyl (3′-chloro-4′-fluoro-[1,1′-biphenyl]-2-yl)carbamate]",14.9,2.67,–
"CN1CC[C@@H](COC(=O)Nc2ccccc2-c2ccccc2F)C1 [Example 156, (R)-(1-methylpyrrolidin-3-yl)methyl(2′-fluoro-[1,1′-biphenyl]-2-yl)carbamate]",10.6,1.15,–
"CN1CC[C@@H](COC(=O)Nc2ccccc2-c2ccc(F)cc2F)C1 [Example 157, (R)-(1-methylpyrrolidin-3-yl)methyl-(2′,4′-difluoro-[1,1′-biphenyl]-2-yl)carbamate]",29.6,3.25,–
"CN1CC[C@@H](COC(=O)Nc2ccccc2-c2cc(Cl)ccc2F)C1 [Example 159, (R)-(1-methylpyrrolidin-3-yl)methyl(3′-chloro-6′-fluoro-[1,1′-biphenyl]-2-yl)carbamate]",5.13,0.46,–
"CN1CCCC1CCOC(=O)Nc1ccccc1-c1cc(Cl)ccc1F (stereo not shown) [Example 186, 2-(1-Methylpyrrolidin-2-yl)ethyl (5′-chloro-2′-fluoro-[1,1′-biphenyl]-2-yl)carbamate]",4.68,0.34,–
"CN1CCC[C@H]1COC(=O)Nc1ccccc1-c1ccccc1F [Example 187, (S)-(1-methylpyrrolidin-2-yl)methyl(2′-fluoro-[1,1′-biphenyl]-2-yl)carbamate]",10.7,0.48,–
"CCN1CC[C@@H](COC(=O)Nc2ccc(F)cc2-c2ccc(F)c(Cl)c2)C1 [Example 196, (R)-(1-ethylpyrrolidin-3-yl)methyl (3′-chloro-4′,5-difluoro-[1,1′-biphenyl]-2-yl)carbamate]",7.67,1.54,–
"COc1ccc(NC(=O)OC[C@@H]2CCCN2C)c(-c2cc(Cl)cc(Cl)c2)c1 [Example 226, (S)-(1-methylpyrrolidin-2-yl)methyl (3′,5′-dichloro-5-methoxy-[1,1′-biphenyl]-2-yl)carbamate]",16.7,4.99,–

# Further lines, with some results ahead:
Ki [1] [nM],Ki [3] [nM],SMILES,Inhibition of Rhythmic bladder contraction in rats [2] [%]
8.1,–,"CN1CCCC1COC(=O)Nc1ccccc1-c1ccc(F)cc1 (stereo in doubt) [Example 99, (S)-(1-methylpyrrolidin-2-yl)methyl (4′-fluoro-[1,1′-biphenyl]-2-yl)carbamate]",16.3 ± 1.0
4.42,–,"CN1CCCC1CCOC(=O)Nc1ccccc1-c1ccc(F)cc1 (stereo not shown) [Example 1, 2-(1-methylpyrrolidin-2-yl)ethyl(4′-fluoro-[1,1′-biphenyl]-2-yl)carbamate]",26.1 ± 5.1
11.6,–,"CN1CCCC1CCOC(=O)Nc1ccccc1-c1cc(F)c(F)c(F)c1 (stereo not shown) [Example 3, 2-(1-methylpyrrolidin-2-yl)ethyl(3′,4′,5′-trifluoro-[1,1′-biphenyl]-2-yl)carbamate]",15.9 ± 0.9
2.47,–,"CN1CCCC1CCOC(=O)Nc1ccccc1-c1ccccc1 (stereo not shown) [Example 6, 2-(1-methylpyrrolidin-2-yl)ethyl[1,1′-biphenyl]-2-ylcarbamate]",28.5 ± 4.6
13.2,13.2,"CN1CCCC1CCOC(=O)Nc1ccc(Cl)cc1-c1ccc(F)cc1 (stereo not shown) [Example 68, 2-(1-Methylpyrrolidin-2-yl)ethyl(5-chloro-4′-fluoro-[1,1′-biphenyl]-2-yl)carbamate]",–
22,10,"CN1CCCC1CCOC(=O)Nc1ccc(O)cc1-c1ccc(F)c(Cl)c1 (stereo not shown) [Example 77, 2-(1-methylpyrrolidin-2-yl)ethyl (3′-chloro-4′-fluoro-5-hydroxy-[1,1′-biphenyl]-2-yl)carbamate]",–
4.23,0.58,"CN1CC[C@@H](COC(=O)Nc2ccccc2-c2ccc(F)cc2)C1 [Example 114, (R)-(1-methylpyrrolidin-3-yl)methyl(4′-fluoro-[1,1′-biphenyl]-2-yl)carbamate]",–
7.57,0.35,"CN1CC[C@@H](COC(=O)Nc2ccc(F)cc2-c2ccc(F)cc2)C1 [Example 141, (R)-(1-methylpyrrolidin-3-yl)methyl(4′,5-difluoro-[1,1′-biphenyl]-2-yl)carbamate]",–
10.2,2.22,"CN1CCC[C@H]1COC(=O)Nc1ccccc1-c1cc(F)cc(Cl)c1 [Example 148, (S)-(1-methylpyrrolidin-2-yl)methyl(3′-chloro-5′-fluoro-[1,1′-biphenyl]-2-yl)carbamate]",–
1.57,0.1,"CN1CCC[C@H]1COC(=O)Nc1ccccc1-c1ccc(F)c(Cl)c1 [Example 149, (S)-(1-methylpyrrolidin-2-yl)methyl(3′-chloro-4′-fluoro-[1,1′-biphenyl]-2-yl)carbamate]",–
18.9,2.57,"CN1CCCC1CCOC(=O)Nc1ccccc1-c1ccc(F)cc1F (stereo not shown) [Example 183, 2-(1-Methylpyrrolidin-2-yl)ethyl (2′,4′-difluoro-[1,1′-biphenyl]-2-yl)carbamate]",–
13.7,2.23,"CN1CCC[C@H]1COC(=O)Nc1ccccc1-c1ccc(F)cc1F [Example 188, (S)-(1-methylpyrrolidin-2-yl)methyl(2′,4′-difluoro-[1,1′-biphenyl]-2-yl)carbamate]",–
2.17,0.95,"CN1CCC[C@H]1COC(=O)Nc1ccccc1-c1cc(Cl)ccc1F [Example 190, (S)-(1-methylpyrrolidin-2-yl)methyl(3′-chloro-6′-fluoro-[1,1′-biphenyl]-2-yl)carbamate]",–
9.91,10,"CN1CCC[C@H]1COC(=O)Nc1ccc(F)cc1-c1ccc(F)c(Cl)c1 [Example 211, (S)-(1-methylpyrrolidin-2-yl)methyl(3′-chloro-4′,5-difluoro-[1,1′-biphenyl]-2-yl)carbamate]",–
15.1,7.5,"COc1ccc(NC(=O)OC[C@@H]2CCCN2C)c(-c2cccc(Cl)c2)c1 [Example 224, (S)-(1-methylpyrrolidin-2-yl)methyl(3′-chloro-5-methoxy-[1,1′-biphenyl]-2-yl)carbamate]",–

# From patent publication US9828339B2, “Biphenyl derivatives and methods for preparing same” (DONG-A ST CO., LTD, priority 2013, dated 2017)
